Earlier results, collected in patent US20200315976A1, “Encapsulation Methods and Compositions” (Prodo Laboratories, Inc., priority 2017, published 2020).

System: islets

CCOC(=O)c1ccccc1-c1c2cc(Br)c(=O)c(Br)c-2oc2c(Br)c([O-])c(Br)cc12.[K+] [Ethyl eosin, ethyl eosin]
effect on islets during conformal encapsulation: islet death
